According to patent US20250059169A1, “PYRAZOLE-1(2H)-PHTHALAZINONE COMPOUND AND APPLICATION THEREOF” (MEDSHINE DISCOVERY INC., priority 2021, published 2025):
Each block holds one molecule with its values, some of them ahead of it.

Experiments:
[1] = Pharmacokinetic testing in Beagles; type: in vivo
Procedure: Experimental purpose: To test the pharmacokinetic properties of the compound of the present disclosure in Beagles.
Experimental materials: Beagles (male, >6 months old, Beijing Marshall Biotechnology Co., Ltd.)
The pharmacokinetic characteristics of the compound in dogs were tested following intravenous injection and oral administration according to a standard protocol. In the experiment, the test compound was prepared as a clear solution for single intravenous injection and single oral administration in dogs. In the case of intravenous injection, the dose was 2 mg/kg, with the vehicle being 5% DMSO/10% Solutol/85% water. In the case of oral administration, the dose was 10 mg/kg, with the vehicle being 5% DMSO/10% Solutol/85% water. Whole blood samples were collected within 48 hours, centrifuged at 3000 g for 15 minutes at 4° C., and the supernatant was separated to obtain plasma samples. 20 times the volume of acetonitrile solution containing internal standard was added to precipitate the protein. The samples were vortexed for 10 minutes and centrifuged at 3220 g for 15 minutes at 4° C. The supernatant was transferred to a 96-well plate and centrifuged at 3220 g for 5 minutes at 4° C. The supernatant was then injected for LC-MS/MS analysis to quantify plasma concentration, and pharmacokinetic parameters were calculated.

[2] = system: human large cell lung cancer LU99 subcutaneous xenograft tumor; assay: In vivo efficacy test, LU99 subcutaneous xenograft tumor model; set-up: species or system BALB/c nude mice; settings: for TGI: based on tumor volume on day 29
Procedure: To evaluate the tumor inhibitory effect of the compounds of the present disclosure on a human large cell lung cancer LU99 subcutaneous xenograft tumor model.
Female BALB/c nude mice were subcutaneously inoculated with the human large cell lung cancer LU99 cell line. After inoculation, the mice were randomly divided into groups based on body weight and tumor volume, with six animals per group, and were administered as described below.
Group 1 (vehicle group): When the tumor volume reached 207±9 mm^3 after inoculation, the mice were administered daily by gavage with the vehicle (5% DMSO/10% Solutol/85% double-distilled water) at a dose of 0.1 mL/10 g.
Group 2 (treatment group): When the tumor volume reached 207±10 mm^3 after inoculation, the mice were administered daily by gavage with the test compound (compound dissolved in 5% DMSO/10% Solutol/85% double-distilled water) at a dose of 12.5 mg/kg.
Group 3 (treatment group): When the tumor volume reached 207±10 mm^3 after inoculation, the mice were administered daily by gavage with the test compound (compound dissolved in 5% DMSO/10% Solutol/85% double-distilled water) at a dose of 25 mg/kg.
Group 4 (treatment group): When the tumor volume reached 207±14 mm^3 after inoculation, the mice were administered daily by gavage with the test compound (compound dissolved in 5% DMSO/10% Solutol/85% double-distilled water) at a dose of 50 mg/kg.
After the experimental grouping, the mice were weighed twice weekly, and the tumor diameters were measured using a vernier caliper. The tumor volume was calculated, and then the tumor growth inhibition (TGI) was calculated. On day 29 after experimental administration, the mice were euthanized and sampled. The calculation formulas are as follows:
Tumor volume=0.5×Length×Width^2
TGI (%)=[1−(Ti−T0)/(Ci−C0)]×100%, where Ti is the average tumor volume of a given administration group on a given day, T0 is the average tumor volume of the administration group at the start of administration, Ci is the average tumor volume of the control group on a given day (the same day as Ti), and C0 is the average tumor volume of the control group at the start of administration.

[3] = Pharmacokinetic testing in CD-1 mice; type: in vivo
Procedure: Experimental purpose: To test the pharmacokinetic properties of the compound of the present disclosure in CD-1 mice.
Experimental materials: CD-1 mice (female, 15 to 30 g, 6 to 9 weeks, Beijing Vital River Laboratory Animal Technology Co., Ltd.)
The pharmacokinetic characteristics of the compound in rodents were tested following intravenous injection and oral administration according to a standard protocol. In the experiment, the candidate compound was prepared as a clear solution for single intravenous injection and as a homogeneous suspension for single oral administration in mice. In the case of intravenous injection, the dose was 3 mg/kg, with the vehicle being 5% DMSO/10% Solutol/85% water. In the case of oral administration, the dose was 30 mg/kg, with the vehicle being 0.5% MC (4000 cps)/0.2% Tween-80. Whole blood samples were collected within 24 hours, centrifuged at 3000 g for 15 minutes at 4° C., and the supernatant was separated to obtain plasma samples. 20 times the volume of acetonitrile solution containing internal standard was added to precipitate the protein. The samples were vortexed for 10 minutes and centrifuged at 3220 g for 15 minutes at 4° C. The supernatant was transferred to a 96-well plate and centrifuged at 3220 g for 5 minutes at 4° C. The supernatant was then injected for LC-MS/MS analysis to quantify plasma concentration, and pharmacokinetic parameters were calculated.

[4] = In vitro liver microsomal stability test, human; type: in vitro ADME; settings: Human liver microsomes, 1 μM compound, 0.5 mg/mL
Procedure: (§1) Liver microsomes: Human and animal microsomes were purchased from Corning or Xenotech and stored in a −80° C. freezer.
(§2) Reduced nicotinamide adenine dinucleotide phosphate (NADPH), supplier: Chem-Impex International, Cat. No.: 00616.
(§3) Stock solution: 10 mM DMSO solution
(§4) Preparation of working concentration: The stock solution was diluted to 100 µM using 100% acetonitrile (organic phase content: 99% acetonitrile, 1% DMSO).
(§5) Two 96-well incubation plates were prepared and named as T60 incubation plate and NCF60 incubation plate.
(§6) 445 μL of microsomal working solution (liver microsomal protein concentration of 0.56 mg/mL) was added to both the T60 incubation plate and the NCF60 incubation plate.
(§7) The two incubation plates were pre-incubated in a 37° C. water bath for approximately 10 minutes.
(§8) After pre-incubation, 5 μL of the test compound or control compound working solution was added to both the T60 incubation plate and the NCF60 incubation plate and mixed well. 50 μL of potassium phosphate buffer per well was added to the NCF60 incubation plate to initiate the reaction. 180 μL of termination solution (acetonitrile solution containing 200 ng/mL tolbutamide and 200 ng/mL labetalol) and 6 μL of NADPH regeneration system working solution were added to a TO termination plate. […]

[5] = In vitro liver microsomal stability test, dog; type: in vitro ADME; settings: Dog liver microsomes, 1 μM compound, 0.5 mg/mL
Procedure: as §1, §2, §3, §4, §5, §6, §7, §8

[6] = In vitro liver microsomal stability test, rat; type: in vitro ADME; settings: Rat liver microsomes, 1 μM compound, 0.5 mg/mL
Procedure: as §1, §2, §3, §4, §5, §6, §7, §8

[7] = system: HCT116 MTAP KO cells; assay: In vitro proliferation assay of HCT116 MTAP KO cells; type: cell-based; settings: 10 days, 3D CellTiter-Glo
Procedure: (§9) McCoy's 5A medium, penicillin/streptomycin antibiotics, purchased from Wisent; fetal bovine serum, purchased from Biosera. 3D CellTiter-Glo (chemiluminescent cell viability assay reagent), purchased from Promega. HCT116 WT cell line, purchased from Nanjing Cobioer Biosciences Co., Ltd. HCT116 MTAP KO cell line, purchased from Horizon Discovery. Envision multilabel plate reader (PerkinElmer).
(§10) HCT116 WT and MTAP KO cells were seeded into an ultra-low attachment 96-well U-bottom plate at a density of 80 μL cell suspension per well containing 1000 HCT116 cells. The cell plate was incubated overnight in a CO2 incubator.
(§11) The test compound was serially diluted 5-fold across eight concentrations using a pipette, ranging from 2 mM to 25.6 nM, and tested in duplicate. 78 μL of medium per well was added to an intermediate plate. Subsequently, 2 μL of the serially diluted compound per well was transferred to the corresponding wells of the intermediate plate and mixed well. […] An additional cell plate was prepared to read the signal value on the day of compound addition, which served as the […] for data analysis.
(§12) The cell plate was added with 100 μL of chemiluminescent cell viability assay reagent per well and incubated at room temperature for 10 minutes to stabilize the luminescent signal. A multilabel microplate reader was used for reading. […]

[8] = system: HCT116 WT cells; assay: In vitro proliferation assay of HCT116 WT cells; type: cell-based; settings: 10 days, 3D CellTiter-Glo
Procedure: as §9, §10, §11, §12

Clearance ([1]; intravenous injection 2 mg/kg): 4.29 mL/min/kg
Half-life T1/2 ([1]; intravenous injection 2 mg/kg): 5.90 h
Bioavailability F ([1]; oral 10 mg/kg): 113%
Plasma concentration integral AUC0-last ([1]; oral 10 mg/kg): 91.502 µM·h
Clearance Cl ([3]; intravenous injection 3 mg/kg): 30.0 mL/min/kg
Half-life T1/2 ([3]; intravenous injection 3 mg/kg): 1.29 h
Bioavailability F ([3]; oral 30 mg/kg): 46.8%
Concentration integral AUC0-last ([3]; oral 30 mg/kg): 16.059 µM·h
Liver microsomal stability CLint [4]: 20.4 mL/min/kg
Liver microsomal stability CLint [5]: 47.7 mL/min/kg
Liver microsomal stability CLint [6]: 53.6 mL/min/kg
SMILES: [2H]C([2H])([2H])n1ncc(-c2ccc3c(=O)[nH]nc(CN)c3c2)c1-c1c(F)c(Cl)cc(OC2(C)CC2)c1C#N [Compound 3A]
Tumor volume ([2]; 12.5 mg/kg daily by gavage, Day 0): 207 mm^3
Tumor volume ([2]; 12.5 mg/kg daily by gavage, Day 4): 253 mm^3
Tumor volume ([2]; 12.5 mg/kg daily by gavage, Day 8): 297 mm^3
Tumor volume ([2]; 12.5 mg/kg daily by gavage, Day 11): 331 mm^3
Tumor volume ([2]; 12.5 mg/kg daily by gavage, Day 15): 382 mm^3
Tumor volume ([2]; 12.5 mg/kg daily by gavage, Day 18): 440 mm^3
Tumor volume ([2]; 12.5 mg/kg daily by gavage, Day 22): 494 mm^3
Tumor volume ([2]; 12.5 mg/kg daily by gavage, Day 25): 565 mm^3
Tumor volume ([2]; 12.5 mg/kg daily by gavage, Day 29): 755 mm^3
TGI ([2]; 12.5 mg/kg daily by gavage): 66%
Tumor volume ([2]; 25 mg/kg daily by gavage, Day 0): 207 mm^3
Tumor volume ([2]; 25 mg/kg daily by gavage, Day 4): 254 mm^3
Tumor volume ([2]; 25 mg/kg daily by gavage, Day 8): 247 mm^3
Tumor volume ([2]; 25 mg/kg daily by gavage, Day 11): 240 mm^3
Tumor volume ([2]; 25 mg/kg daily by gavage, Day 15): 238 mm^3
Tumor volume ([2]; 25 mg/kg daily by gavage, Day 18): 248 mm^3
Tumor volume ([2]; 25 mg/kg daily by gavage, Day 22): 282 mm^3
Tumor volume ([2]; 25 mg/kg daily by gavage, Day 25): 363 mm^3
Tumor volume ([2]; 25 mg/kg daily by gavage, Day 29): 491 mm^3
TGI ([2]; 25 mg/kg daily by gavage): 83%
Tumor volume ([2]; 50 mg/kg daily by gavage, Day 0): 207 mm^3
Tumor volume ([2]; 50 mg/kg daily by gavage, Day 4): 239 mm^3
Tumor volume ([2]; 50 mg/kg daily by gavage, Day 8): 238 mm^3
Tumor volume ([2]; 50 mg/kg daily by gavage, Day 11): 209 mm^3
Tumor volume ([2]; 50 mg/kg daily by gavage, Day 15): 206 mm^3
Tumor volume ([2]; 50 mg/kg daily by gavage, Day 18): 193 mm^3
Tumor volume ([2]; 50 mg/kg daily by gavage, Day 22): 226 mm^3
Tumor volume ([2]; 50 mg/kg daily by gavage, Day 25): 273 mm^3
Tumor volume ([2]; 50 mg/kg daily by gavage, Day 29): 412 mm^3
TGI ([2]; 50 mg/kg daily by gavage): 87%

IC50 [7]: 8 nM
IC50 [8]: > 10000 nM
SMILES: Cn1ncc(-c2ccc3c(=O)[nH]nc(CN)c3c2)c1-c1c(F)c(Cl)cc(OC2(C)CC2)c1C#N (single isomer, unassigned) [Compound 1A]

IC50 [7]: 7.43 nM
IC50 [8]: 4700 nM
SMILES: Cn1ncc(-c2ccc3c(=O)[nH]nc(CN)c3c2)c1-c1c(F)c(Cl)cc(OC2(C)CC2)c1C#N (single isomer, unassigned) [Compound 3A]
